T/C data for 27 compounds are collected here from PubChem BioAssay AID330 (DTP/NCI, 2004).

Structures are written as SMILES. Where “and” joins values, the source holds several entries; their conditions need not be identical. Identical values can stand only once. Toxic doses and inconclusive results are not listed. Peptide text beside a SMILES is read from it.

This test deals with P388 leukemia ip, CD2F1 mice, survival T/C. The test can be described thus: NCI In Vivo Anticancer Drug Screen. Data for tumor model P388 Leukemia (intraperitoneal) in CD2F1 (CDF1) mice. To be noted: endpoint: median survival time, higher = longer survival. A digest of the protocol:
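Mice carrying the transplanted tumor received test compound or vehicle. Survival was recorded in each group, and the value is the treated-group measurement divided by that of the vehicle-treated control group.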

Setting [1] is: dose: 60.0 mg/kg/injection, schedule: Q01DX005 (ip), vehicle: saline.
Where [2] appears, read: dose: 120.0 mg/kg/injection, schedule: Q01DX005 (ip), vehicle: saline.
[3] abbreviates: dose: 25.0 mg/kg/injection, schedule: Q01DX009 (ip), vehicle: saline with Tween-80.
Where [4] appears, read: dose: 50.0 mg/kg/injection, schedule: Q01DX009 (ip), vehicle: saline with Tween-80.
Where [5] appears, read: dose: 100.0 mg/kg/injection, schedule: Q01DX009 (ip), vehicle: saline with Tween-80.
Setting [6] is: dose: 200.0 mg/kg/injection, schedule: Q01DX009 (ip), vehicle: saline with Tween-80.
Setting [7] is: dose: 60.0 mg/kg/injection, schedule: Q01DX005 (ip), vehicle: saline with Tween-80.
The mark [8] stands for this setting: dose: 120.0 mg/kg/injection, schedule: Q01DX005 (ip), vehicle: saline with Tween-80.
The mark [9] stands for this setting: dose: 240.0 mg/kg/injection, schedule: Q01DX005 (ip), vehicle: saline with Tween-80.
Where [10] appears, read: dose: 6.25 mg/kg/injection, schedule: Q01DX005 (ip), vehicle: saline with Tween-80.
[11] abbreviates: dose: 12.5 mg/kg/injection, schedule: Q01DX005 (ip), vehicle: saline with Tween-80.
[12] abbreviates: dose: 25.0 mg/kg/injection, schedule: Q01DX005 (ip), vehicle: saline with Tween-80.
[13] abbreviates: dose: 25.0 mg/kg/injection, schedule: Q04DX003 (ip), vehicle: saline with Tween-80.
Where [14] appears, read: dose: 50.0 mg/kg/injection, schedule: Q01DX009 (ip), vehicle: saline.
The mark [15] stands for this setting: dose: 50.0 mg/kg/injection, schedule: Q01DX005 (ip), vehicle: saline.
Where [16] appears, read: dose: 100.0 mg/kg/injection, schedule: Q01DX005 (ip), vehicle: saline.

For `COC(=O)c1cc(-c2ccccc2)[nH]c(=O)c1C#N`, the T/C by setting is: under setting [1], 100 % of control; under setting [2], 100 % of control.
Consider `CC(=O)OC1(CSc2ccccc2)CCCCC1`, for which the T/C is 89 % of control under setting [3]; 101 % of control and 102 % of control under setting [4]; 104 % of control and 109 % of control under setting [5]; 108 % of control and 111 % of control under setting [6]; 111 % of control (dose: 400.0 mg/kg/injection, schedule: Q01DX009 (ip), vehicle: saline with Tween-80).
Take `CC(C)c1cc2c(cc1O)C(O)C1(O)CCCC(C)(C)[C@H]1CC2` (stereo partly specified): the T/C is 104 % of control (dose: 7.5 mg/kg/injection, schedule: Q01DX005 (ip), vehicle: other); 100 % of control (dose: 15.0 mg/kg/injection, schedule: Q01DX005 (ip), vehicle: other); 86 % of control (dose: 30.0 mg/kg/injection, schedule: Q01DX005 (ip), vehicle: other); 94 % of control (dose: 60.0 mg/kg/injection, schedule: Q01DX005 (ip), vehicle: other).
With `CC[OH+]CC[OH+]CC[OH+]C1CCCC2CCC[N-]C21.[Cl][Cu][Cl]` (stereo unspecified), the T/C by setting is: (dose: 6.25 mg/kg/injection, schedule: Q01DX005 (ip), vehicle: Klucel (hydroxypropylcellulose) (HPC)) 97 % of control; (dose: 12.5 mg/kg/injection, schedule: Q01DX005 (ip), vehicle: Klucel (hydroxypropylcellulose) (HPC)) 92 % of control.
Take `COC(=O)Nn1c(C)c(C(=O)Nc2ccc(OC)cc2)c(C(=O)OC)c1C`: the T/C was 97 % of control under setting [7], 100 % of control under setting [8] and 97 % of control under setting [9].
As for `O=C1CCC(=O)N1SC(Cl)(Cl)Cl`, the T/C was 109 % of control under setting [10], 107 % of control under setting [11] and 100 % of control under setting [12].
On to `CCC(CC)C(=O)NC(=O)NC(N)=O`, for which the T/C reads like this: under setting [7], 97 % of control; under setting [8], 97 % of control; under setting [9], 112 % of control.
On to `O=C(OCCN1CCN(CCOC(=O)C(Cl)(c2ccccc2)c2ccccc2)CC1)C(Cl)(c1ccccc1)c1ccccc1`, for which the T/C was 95 % of control under setting [10]; 93 % of control under setting [11]; 95 % of control under setting [12]; 90 % of control (dose: 100.0 mg/kg/injection, schedule: Q01DX005 (ip), vehicle: saline with Tween-80).
Turning to `Cc1cc(N/N=C/c2ccc(N(CCCl)CCCl)cc2)c2cc3c(cc2n1)OCO3`, under setting [13], the T/C is 111 % of control.
For the compound `C=C(C)C#CC1(O)C=C(OC)C(OC)=CC1=O` (stereo unspecified), the T/C was 105 % of control under setting [7], 107 % of control under setting [8] and 88 % of control under setting [9].
As to `C1CCC(N=C(NC2CCCCC2)N2CCOCC2)CC1`, the T/C is, setting by setting: (dose: 6.25 mg/kg/injection, schedule: Q01DX009 (ip), vehicle: saline) 99 % of control; (dose: 12.5 mg/kg/injection, schedule: Q01DX009 (ip), vehicle: saline) 99 % of control; (dose: 25.0 mg/kg/injection, schedule: Q01DX009 (ip), vehicle: saline) 100 % of control; under setting [14], 89 % of control.
In the case of `CCOC(=O)Nc1ccc(Cl)cc1C(=O)c1ccccc1`, the T/C reads like this: (dose: 45.0 mg/kg/injection, schedule: Q01DX009 (ip), vehicle: saline with Tween-80) 102 % of control; (dose: 90.0 mg/kg/injection, schedule: Q01DX009 (ip), vehicle: saline with Tween-80) 100 % of control; (dose: 180.0 mg/kg/injection, schedule: Q01DX009 (ip), vehicle: saline with Tween-80) 96 % of control.
Regarding `CN(C)CCN1C(=O)c2cccc3cc([N+](=O)[O-])cc(c23)C1=O`, the T/C by setting is: (dose: 0.78 mg/kg/injection, schedule: Q01DX009 (ip), vehicle: saline with Tween-80) 101 % of control; (dose: 3.12 mg/kg/injection, schedule: Q01DX009 (ip), vehicle: saline with Tween-80) 117 % of control and 124 % of control.
On to `O=CNc1ncc([N+](=O)[O-])s1`, for which the T/C by setting is: (dose: 12.5 mg/kg/injection, schedule: Q01DX009 (ip), vehicle: saline with Tween-80) 95 % of control; under setting [3], 90 % of control; under setting [4], 100 % of control and 102 % of control.
As for `Cc1ccc(N2CC(=O)N3CCCN3C(=O)C2)cc1`, the T/C reads like this: under setting [10], 98 % of control; under setting [11], 100 % of control; under setting [12], 102 % of control.
For `O=C(NNC(O)C(F)(F)F)c1ccccc1` (stereo unspecified), the T/C reads like this: (dose: 100.0 mg/kg/injection, schedule: Q04DX003 (ip), vehicle: Klucel (hydroxypropylcellulose) (HPC)) 103 % of control; (dose: 200.0 mg/kg/injection, schedule: Q04DX003 (ip), vehicle: Klucel (hydroxypropylcellulose) (HPC)) 103 % of control; (dose: 400.0 mg/kg/injection, schedule: Q04DX003 (ip), vehicle: Klucel (hydroxypropylcellulose) (HPC)) 110 % of control.
Consider `CC(=O)OC1C(=O)C2(C)C(O)CC3OCC3(OC(C)=O)C2C(OC(=O)c2ccccc2)C2(O)CC(OC(=O)C(O)C(NC(=O)c3ccccc3)c3ccccc3)C(C)=C1C2(C)C` (stereo unspecified), for which the T/C runs as follows: (dose: 2.5 mg/kg/injection, schedule: Q01DX005 (ip), vehicle: DMSO) 106 % of control; (dose: 5.0 mg/kg/injection, schedule: Q01DX005 (ip), vehicle: DMSO) 121 % of control; (dose: 20.0 mg/kg/injection, schedule: Q01DX005 (ip), vehicle: DMSO) 167 % of control.
Take `CCOC(=O)NNc1cccc(Cl)c1`: the T/C reads like this: under setting [14], 100 % of control; (dose: 100.0 mg/kg/injection, schedule: Q01DX009 (ip), vehicle: saline) 100 % of control.
Take `Cc1ccc(NC(=O)Nc2sc(=S)c3c(c2C#N)CCCC3)c(C)c1`: the T/C by setting is: under setting [4], 87 % of control; under setting [5], 94 % of control; under setting [6], 89 % of control.
As to `CCC(CC)(C(=O)Nc1ccc2nc(C)cc(N)c2c1)C(=O)Nc1ccc2nc(C)cc(N)c2c1`, the T/C is 102 % of control under setting [11]; 90 % of control under setting [12]; 87 % of control and 93 % of control (dose: 50.0 mg/kg/injection, schedule: Q01DX005 (ip), vehicle: saline with Tween-80); 93 % of control (dose: 200.0 mg/kg/injection, schedule: Q01DX005 (ip), vehicle: saline with Tween-80).
Turning to `c1ccc(C[n+]2ccc3ccccc3c2)cc1`, the T/C was 101 % of control (dose: 6.25 mg/kg/injection, schedule: Q04DX003 (ip), vehicle: saline with Tween-80); 100 % of control (dose: 12.5 mg/kg/injection, schedule: Q04DX003 (ip), vehicle: saline with Tween-80); 101 % of control under setting [13].
As for `CC(=Nc1c[nH]c(=O)[nH]c1=O)c1ccccc1`, the T/C (dose: 100.0 mg/kg/injection, schedule: Q04DX002 (ip), vehicle: suspension in saline) was 104 % of control; the T/C (dose: 200.0 mg/kg/injection, schedule: Q04DX002 (ip), vehicle: suspension in saline) was 101 % of control; the T/C (dose: 400.0 mg/kg/injection, schedule: Q04DX002 (ip), vehicle: suspension in saline) is 94 % of control.
Turning to `Cc1csc(N)n1`, the T/C runs as follows: (dose: 100.0 mg/kg/injection, schedule: Q04DX002 (ip), vehicle: saline) 97 % of control; (dose: 200.0 mg/kg/injection, schedule: Q04DX002 (ip), vehicle: saline) 95 % of control; (dose: 400.0 mg/kg/injection, schedule: Q04DX002 (ip), vehicle: saline) 101 % of control.
As to `O=C1c2sccc2C2NC12` (stereo unspecified), the T/C under setting [15] was 91 % of control and the T/C under setting [16] is 100 % of control.
Consider `CC(=O)c1ccccc1N=Nc1ccc(N(CCCl)CCCl)cc1C`, for which the T/C by setting is: under setting [3], 98 % of control; under setting [4], 104 % of control and 108 % of control; under setting [5], 96 % of control; under setting [6], 123 % of control.
Consider `O=C(CC1=NC2NN(c3ccccc3)C(=O)C2=C1CC(=O)c1ccccc1)c1ccccc1` (stereo unspecified), for which the T/C under setting [1] is 100 % of control; the T/C under setting [2] was 107 % of control; the T/C (dose: 240.0 mg/kg/injection, schedule: Q01DX005 (ip), vehicle: saline) is 110 % of control.
As to `CC(O)C(N)C(=O)NC(Cc1ccc(O)cc1)C(=O)NC(CCCCN)C(=O)O` (stereo not drawn) (H-Thr-Tyr-Lys-OH; configuration not given here), the T/C under setting [15] was 101 % of control; the T/C under setting [16] was 101 % of control; the T/C (dose: 200.0 mg/kg/injection, schedule: Q01DX005 (ip), vehicle: saline) was 106 % of control.
